Laboratory results reported in ChEMBL document CHEMBL1201862, “PubChem BioAssay data set” (2004).
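A five-concentration, 48-hour dose response in 96-well plates underlies each endpoint, interpolated linearly between surrounding concentrations. GI50 = concentration required for 50% inhibition of growth.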 Calls of active or inactive are those of the source. Cut-off read from the data, not from the text of the source: active = GI50 up to about 1.1 µM and inactive = higher.

Columns and labels:
Assay in all cases: growth of human tumour cells (NCI), 48 h
HT-29 = system: HT-29
OVCAR-5 = system: OVCAR-5
M14 = system: M14
786-0 = system: 786-0
UO-31 = system: UO-31
KM12 = system: KM12
COLO 205 = system: COLO 205
NCI-H522 = system: NCI-H522
IGROV-1 = system: IGROV-1
SNB-19 = system: SNB-19
TK-10 = system: TK-10
Malme-3M = system: Malme-3M
EKVX = system: EKVX
DLD-1 = system: DLD-1
HOP-92 = system: HOP-92
RPMI-8226 = system: RPMI-8226
SK-OV-3 = system: SK-OV-3
MDA-MB-231 = system: MDA-MB-231
MDA-MB-435 = system: MDA-MB-435
BT-549 = system: BT-549

Measured: GI50

CC[C@H](C)[C@H]1NC(=O)C(C(C)=O)=C1O
inactive: HT-29 > 100 µM | OVCAR-5 > 100 µM | M14 > 100 µM | 786-0 98.6 µM | UO-31 > 100 µM | KM12 96.4 µM | COLO 205 > 100 µM | NCI-H522 88.5 µM | IGROV-1 > 100 µM | SNB-19 78.3 µM | TK-10 > 100 µM | Malme-3M > 100 µM | EKVX > 100 µM | DLD-1 70.3 µM | HOP-92 > 100 µM

CC1=C(CO)C(=O)OC(C(C)C2CCC3C4CC5OC56C(O)C(N5CC5)=CC(=O)C6(C)C4CCC23C)C1 (stereo unspecified)
inactive: HT-29 3.94 µM | OVCAR-5 17.4 µM | M14 12.1 µM | RPMI-8226 3.35 µM | 786-0 5.05 µM | UO-31 12.9 µM | KM12 2.02 µM | NCI-H522 1.67 µM | IGROV-1 3.47 µM | SNB-19 2.04 µM | TK-10 10.1 µM | Malme-3M 12.6 µM | EKVX 12.2 µM | DLD-1 4.93 µM | HOP-92 5.33 µM

N#Cc1cccc(/C=N/N/C(N)=N/O)c1
inactive: HT-29 45.5 µM | OVCAR-5 > 100 µM | M14 41.4 µM | 786-0 > 100 µM | UO-31 49.1 µM | KM12 52.7 µM | COLO 205 > 100 µM | NCI-H522 21.6 µM | IGROV-1 24.2 µM | SNB-19 > 100 µM | TK-10 37.6 µM | SK-OV-3 27.5 µM | Malme-3M 85.1 µM | EKVX 9.18 µM | DLD-1 53.2 µM | HOP-92 39.4 µM

COc1cc(C(=O)Nc2c3ccccc3nc3ccccc23)cc(OC)c1OC
inactive: HT-29 > 100 µM | OVCAR-5 > 100 µM | M14 > 53.6 µM | RPMI-8226 > 100 µM | 786-0 > 100 µM | MDA-MB-231 > 91.8 µM | UO-31 40.3 µM | KM12 > 100 µM | COLO 205 > 100 µM | NCI-H522 42 µM | IGROV-1 > 100 µM | SNB-19 > 95.1 µM | TK-10 > 100 µM | SK-OV-3 > 100 µM | Malme-3M > 78.3 µM | EKVX > 59 µM | HOP-92 50.1 µM | MDA-MB-435 > 74.5 µM | BT-549 > 100 µM

O=C(O)c1cc2c(cc1CC(Cc1ccc3c(c1)CCCC3)C(=O)O)CCCC2 (stereo unspecified)
inactive: HT-29 > 100 µM | OVCAR-5 > 100 µM | M14 > 100 µM | RPMI-8226 63.2 µM | 786-0 > 100 µM | MDA-MB-231 > 100 µM | UO-31 > 100 µM | KM12 > 100 µM | COLO 205 > 100 µM | NCI-H522 31.2 µM | IGROV-1 > 100 µM | SNB-19 60 µM | TK-10 > 100 µM | SK-OV-3 > 100 µM | Malme-3M > 100 µM | EKVX 56 µM | HOP-92 83 µM | MDA-MB-435 > 100 µM | BT-549 59.2 µM

O=C1CCC(CCc2nc3ccccc3[nH]2)(c2ccccc2)C(=O)N1 (stereo unspecified)
inactive: HT-29 > 100 µM | OVCAR-5 > 100 µM | M14 > 100 µM | RPMI-8226 > 100 µM | 786-0 > 100 µM | MDA-MB-231 > 100 µM | UO-31 20.2 µM | KM12 > 100 µM | COLO 205 > 100 µM | NCI-H522 47.4 µM | IGROV-1 64 µM | SNB-19 > 100 µM | TK-10 > 100 µM | SK-OV-3 > 100 µM | Malme-3M > 100 µM | EKVX 62.4 µM | HOP-92 83.6 µM | MDA-MB-435 > 100 µM | BT-549 > 100 µM

COc1cc2ccc(CC#N)cc2cc1OC
inactive: HT-29 > 100 µM | OVCAR-5 > 100 µM | 786-0 > 100 µM | UO-31 > 100 µM | KM12 > 100 µM | SNB-19 > 100 µM | TK-10 > 100 µM | SK-OV-3 > 100 µM | Malme-3M > 100 µM | EKVX 83.8 µM | DLD-1 > 100 µM | HOP-92 71.1 µM

O=CNC(Cc1c[nH]cn1)C(=O)O (stereo unspecified)
inactive: HT-29 > 100 µM | OVCAR-5 > 100 µM | M14 > 100 µM | RPMI-8226 > 100 µM | 786-0 > 100 µM | MDA-MB-231 > 100 µM | UO-31 > 100 µM | KM12 > 100 µM | COLO 205 > 100 µM | NCI-H522 > 100 µM | IGROV-1 > 100 µM | SNB-19 > 100 µM | TK-10 > 100 µM | SK-OV-3 > 100 µM | Malme-3M > 100 µM | EKVX > 100 µM | HOP-92 > 100 µM | MDA-MB-435 > 100 µM | BT-549 > 100 µM

O=C1C=CC(=O)C(CNc2ccc(C(=O)OCc3ccccc3)cc2)=C1
inactive: HT-29 15.2 µM | OVCAR-5 15.6 µM | M14 7.05 µM | RPMI-8226 1.47 µM | 786-0 3.33 µM | MDA-MB-231 7.82 µM | UO-31 2.29 µM | KM12 9.35 µM | COLO 205 1.86 µM | NCI-H522 1.39 µM | IGROV-1 3.27 µM | SNB-19 13.4 µM | TK-10 4.62 µM | SK-OV-3 12.6 µM | Malme-3M 2.67 µM | EKVX 10.4 µM | HOP-92 1.76 µM | MDA-MB-435 5.06 µM | BT-549 2.56 µM

COc1ccc(C(C#N)NC23CC4CC(CC(C4)C2)C3)cc1OC (stereo unspecified)
inactive: HT-29 > 100 µM | OVCAR-5 > 100 µM | M14 > 100 µM | RPMI-8226 > 100 µM | 786-0 > 100 µM | MDA-MB-231 > 100 µM | UO-31 84.3 µM | KM12 > 100 µM | COLO 205 > 100 µM | NCI-H522 > 100 µM | IGROV-1 > 100 µM | SNB-19 > 100 µM | TK-10 > 100 µM | SK-OV-3 > 100 µM | Malme-3M > 100 µM | EKVX > 100 µM | HOP-92 96.8 µM | MDA-MB-435 > 100 µM | BT-549 > 100 µM

COC1CC(OC2C(C)OC(OC3C(C)OC(OC4C(C)OC(O[C@H]5CC[C@@]6(C)C(=CC[C@]7(O)[C@@H]6C[C@@H](OC(=O)/C=C(\C)C(C)C)[C@@]6(C)[C@]7(O)CC[C@@]6(O)C(C)=O)C5)CC4OC)CC3OC)CC2OC)OC(C)C1O (stereo partly specified)
inactive: HT-29 > 12.5 µM | OVCAR-5 > 12.5 µM | M14 > 12.5 µM | RPMI-8226 4.02 µM | 786-0 > 12.5 µM | MDA-MB-231 11.9 µM | UO-31 4.85 µM | KM12 > 12.5 µM | COLO 205 > 12.5 µM | NCI-H522 > 12.5 µM | IGROV-1 > 12.5 µM | SNB-19 > 12.5 µM | TK-10 > 12.5 µM | SK-OV-3 > 12.5 µM | Malme-3M > 12.5 µM | EKVX > 12.5 µM | HOP-92 > 12.5 µM | MDA-MB-435 > 12.5 µM | BT-549 > 12.5 µM
